The text below walks through data of US12582653B2, “Method for treating idiopathic pulmonary fibrosis” (BEIJING TIDE PHARMACEUTICAL CO., LTD., priority 2020, dated 2026).

The structures appear in SMILES notation.

Data set [1] concerns BLM-induced mouse IPF model. Nature of the data set: BLM-induced mouse IPF model (Example 2). The format is in vivo. The conditions noted are these: for up-regulation of TIMP-1 mRNA expression in the lung tissue induced by bleomycin / up-regulation of COL1A1 mRNA expression in the lung tissue induced by bleomycin: real-time fluorescent quantitative PCR, β-actin reference; for up-regulation of TIMP-1 mRNA expression in the lung tissue induced by bleomycin: FIG. 5A; for up-regulation of COL1A1 mRNA expression in the lung tissue induced by bleomycin: FIG. 5B. The method, then: 60 C57BL/6 mice (purchased from SLAC, Shanghai) were adaptively fed for 1 week, and 50 animals were randomly selected. 3 mg/kg of bleomycin (BLM, purchased from SIGMA, #SIGMA-P9564) was administered through intratracheal (IT) injection to the mice to establish the IPF animal model. The remaining 10 animals were injected with physiological saline at a volume same as the injected BLM, and served as the normal group (N=10). The day of the injection of bleomycin was set as day 0 (DO); on day 6, the animals were randomly divided into 4 groups according to body weight: vehicle group (N=14), compound 007 administration group (N=12), compound 128 administration group (N=12), and positive control pirfenidone (purchased from SIGMA, #SIGMA-P2116) administration group (N=12).
The animals in each group were administered on days 8-21: the animals in the normal group and vehicle group were intragastrically administered with vehicle 1 (vehicle 1: 20% PEG 400+5% Tween 80+75% ddH2O), the animals in the compound 007 administration group were intragastrically administered with compound 007 (formulated with vehicle 1), the animals in the compound 128 administration group were intragastrically administered with compound 128 (formulated with vehicle 1), and the animals in the Pirfenidone administration group were intragastrically administered with pirfenidone (vehicle 2: 0.2% Methyl cellulose+0.5% Tween 80+99.3% ddH2O).
The body weight and its changes were recorded daily (the calculation formula for the body weight change on day 21: Body weight change on day 21=Body weight on day 21—Body weight on day 0), and the results are shown in FIGS. 1A and 1B.
The animals were euthanized 2 hours after the administration on day 21, and the alveolar lavage fluid was collected for white blood cell (WBC) counting. According to FIG. 3, there was no significant difference in the total white blood cell count in the alveolar lavage fluid of the animals in each administration group.
The left lung of the animals was fixed for histopathological examination, and the Ashcroft score of lung injury was performed by Masson Trichome staining. The scoring standard is as reported in Ashcroft T et al., Journal of clinical pathology, 1988. After 100 times magnification, each successive field was scored (ranging from 0 (normal lung)) to 8 (total fibrous obliteration within the field).
The mRNA levels of lung tissue fibrosis-associated protein collagen 1A1 (COL1A1) and tissue inhibitor of metal matrix protein 1 (TIMP-1) in the lung tissue after the administration was detected by a real-time fluorescent quantitative PCR method. Specifically, the lung tissue fragments were transferred to a centrifuge tube containing 1 mL of TRIzol reagent (Invitrogen, catalog No. 15596018). The lung tissue was ground at low temperature by a tissue grinder. Total RNA in cells was extracted. TransScript All-in-One First-Strand cDNA Synthesis SuperMix for qPCR (One-Step gDNA Removal) (TransGen, catalog No. AT341-02) kit was used for reverse transcription synthesis of cDNA. The mRNA expression changes of COL1A1 and TIMP-1 in the lung tissue was detected by a fluorescence quantitative PCR method.
In the real-time fluorescent quantitative PCR method, β-actin gene was used as the internal reference gene to normalize the data. All primer sequences were from the PrimerBank website, ID No.: 34328108a1 (COL1A1 primer), 6755795a1 (TIMP-1 primer) and 6671509a1 (β-actin primer). All of the 3 primers were synthesized by Invitrogen.

In data set [2] the test system is BLM-induced mouse IPF model. Nature of the data set: BLM-induced mouse IPF model, different doses (Example 3). The class given is in vivo, C57BL/6J mice. The method, then:
After adaptive feeding, C57BL/6J mice were randomly divided into 2 groups according to body weight: in one group, 15 animals were administered with 50 μL physiological saline through intratracheal injection; and in another group, 90 animals were administered with 50 μL bleomycin (2.5 mg/kg) through intratracheal injection to establish the IPF model. On Day 7 after the establishment of the animal model, animals were randomly grouped according to the weight change (the difference between the weight on Day 7 after the establishment of the model and the day when the model was established). Drugs were administered for 14 consecutive days from the eighth day after the establishment of the animal model. […] The bronchoalveolar lavage fluid (BALF) was collected for white blood cell count. The left lung of the animals was fixed for preparing histopathological slide. H&E and Masson Trichome staining were performed to score the degree of lung injury and fibrosis. Pulmonary fibrosis scoring standard was according to “Standardized quantification of pulmonary fibrosis in histological samples”; lung tissue injury grade score is 0-16, mainly evaluated from four aspects including inflammatory cell infiltration (0-4), hemorrhage (0-4), interstitial and alveolar edema (0-4) and alveolar septum thickness (0-4). A higher score indicate a higher degree of lung tissue injury.

Turning to `Cn1c(C(=O)N2CC(F)(F)C2)cc2ccc(-c3nccc(Nc4ccc(-c5cn[nH]c5)cc4)n3)cc21` [Compound 007], in data set [1] (100 mg/kg orally once a day, 14 days (days 8-21), FIG. 2), the “survival rate of the animals at the end of the test” value is recorded as “significantly higher”. Moreover, the “collagen accumulation in lung and degree of lung fibrosis (Ashcroft score, Masson Trichome staining)” value in data set [1] (100 mg/kg orally once a day, 14 days, FIGS. 4A and 4B) was “significantly reduced”. The “therapeutic effect on lung fibrosis compared with pirfenidone and compound 128” value in data set [1] (007 and 128 at 100 mg/kg once a day, pirfenidone 90 mg/kg twice a day, FIGS. 4A and 4B) is “significantly better than that of pirfenidone and compound 128”. Further, in data set [1], the “up-regulation of TIMP-1 mRNA expression in the lung tissue induced by bleomycin” value is “significantly inhibited” and the “up-regulation of COL1A1 mRNA expression in the lung tissue induced by bleomycin” value is given as “significantly inhibited”. Besides, the “therapeutic effects compared with pirfenidone and nintedanib” value in data set [2] (30 mpk orally once a day, pirfenidone 90 mg/kg twice a day, nintedanib 30 mg/kg once a day) is “equivalent to those of pirfenidone and nintedanib”. In addition, the “therapeutic effects compared with pirfenidone and nintedanib” value in data set [2] (100 mpk orally once a day, pirfenidone 90 mg/kg twice a day, nintedanib 30 mg/kg once a day) is “equivalent to those of pirfenidone and nintedanib”. In addition, the “lung injury and fibrosis degree improvements compared with pirfenidone and nintedanib” value in data set [2] (300 mpk orally once a day, pirfenidone 90 mg/kg twice a day, nintedanib 30 mg/kg once a day) was “superior to pirfenidone and nintedanib”. Moreover, in data set [2] (compared with the model group, FIGS. 7A and 7B), the “lung injury (H&E score 0-16)” value is reported as “significantly improved”. Further, the “fibrosis degree (Masson Trichome score)” value in data set [2] (compared with the model group, FIGS. 8A and 8B) was “significantly improved”. For the same compound, in data set [2] (compared with the model group, orally once a day, 14 days, FIG. 6), the “infiltration of white blood cells in the lung (BALF white blood cell count)” value is “significantly reduce”.

As for `Cc1ccc(=O)n(-c2ccccc2)c1` [Pirfenidone, reference compound], in data set [1], the “up-regulation of TIMP-1 mRNA expression in the lung tissue induced by bleomycin” value is “moderate inhibitory effect without statistic difference” and the “up-regulation of COL1A1 mRNA expression in the lung tissue induced by bleomycin” value was “significantly inhibited”.
